{"source": "patent US7429474B2", "about": "“2-O sulfatase compositions and methods of analyzing therewith” (Massachusetts Institute of Technology, priority 2003, dated 2008)", "system": "Δ 4,5 glycuronidase", "experiment": "Δ 4,5 glycuronidase activity (loss of UV absorption at 232 nm)", "assay_type": "biochemical, F. heparinum", "conditions": "2 mM substrate, 250 nM Δ 4,5 enzyme alone, 30° C.", "method": "The substrate-product relationship between the two enzymes was examined by directly measuring Δ 4,5 glycuronidase activity either before or following the addition of recombinant 2-O sulfatase. Reactions were carried out at 30° C. and included 50 mM MES, pH 6.5, 100 mM NaCl, and 2 mM ΔU2SHNS in a 100 μL reaction volume. In these experiments, 250 nM Δ 4,5 glycuronidase and 25 nM 2-O ΔN^1-24 were sequentially added as follows: Δ 4,5 alone, Δ 4,5 followed by 2-O sulfatase, or 2-O sulfatase followed by Δ 4,5.\nWe hypothesized that, an obligatory substrate-product relationship between the 2-O sulfatase and the Δ 4,5 glycuronidase may exist. We examined a possible kinetic relationship between these two enzymes by looking at their sequential action (FIG. 7). In this experiment, Δ 4,5 glycuronidase activity was measured directly either […] or following the addition of the recombinant 2-O sulfatase using the disaccharide substrate ΔU2SHNS. […] In the reciprocal experiment (i.e., whereby the 2-O sulfatase was added second), we observed an initial lag in Δ 4,5 activity. This lag was followed by a linear Δ 4,5 activity, albeit at a slower rate than in the case where the 2-O sulfatase was added first. The observed delay in activity was presumably due to the prerequisite 2-O desulfation of the substrate which must occur prior to being acted on by the glycuronidase."}
{"compound": "O=C(O)C1=C[C@H](O)[C@@H](OS(=O)(=O)O)[C@H](O[C@H]2[C@H](O)[C@@H](NS(=O)(=O)O)C(O)O[C@@H]2CO)O1", "note": "(stereo partly shown) [ΔU2SHNS]", "values": [{"measurement": "glycuronidase-mediated hydrolysis", "value": "completely refractory"}]}
